The NIST ThermoML archive (doi:10.1021/acs.jced.5b00105)

Legend:
[1] = for surface tension liquid-gas: Drop volume; for viscosity / mass density: 100 kPa, Liquid; for viscosity: Concentric cylinders viscometry; for mass density: Vibrating tube method
[2] = refractive index (Na D-line) (dimensionless); details: 100 kPa, Liquid
[3] = refractive index (Na D-line) (dimensionless); xn = mol fraction of the nth substance listed; details: 100 kPa, Liquid, x2 = 0
[4] = xn = mol fraction of the nth substance listed; details: x2 = 0; for surface tension liquid-gas: Drop volume; for viscosity / mass density: 100 kPa, Liquid; for viscosity: Concentric cylinders viscometry; for mass density: Vibrating tube method

CCC1CCCCC1 [ethylcyclohexane]
Details | mass density, [1] [kg/m3] | refractive index, [2] | surface tension liquid-gas, [1] [mN/m] | viscosity, [1] [mPa·s]
293.15 K | 787.98 | 1.4337 | 25.47 | 0.848
298.15 K | 783.97 | 1.4301 | 24.76 | 0.793
303.15 K | 779.93 | 1.4295 | 24.55 | 0.745
308.15 K | 775.88 | 1.4278 | 23.74 | 0.702
313.15 K | 771.82 | 1.4259 | – | 0.663
318.15 K | 767.69 | 1.4204 | – | 0.628
323.15 K | 763.59 | 1.4187 | – | 0.597
333.15 K | 755.35 | – | – | 0.541
343.15 K | 747.03 | – | – | 0.496

CC(C)CC(C)(C)C [2,2,4-trimethylpentane] + CCC1CCCCC1
Details | mass density, [4] [kg/m3] | refractive index, [3] | surface tension liquid-gas, [4] [mN/m] | viscosity, [4] [mPa·s]
293.15 K | 691.91 | 1.3921 | 18.94 | 0.518
298.15 K | 687.82 | 1.3886 | 18.39 | 0.493
303.15 K | 683.68 | 1.3876 | 17.99 | 0.47
308.15 K | 679.51 | 1.3848 | 17.58 | 0.449
313.15 K | 675.32 | 1.3833 | – | 0.43
318.15 K | 671.05 | 1.3785 | – | 0.414
323.15 K | 666.8 | 1.376 | – | 0.398
333.15 K | 658.2 | – | – | 0.371
343.15 K | 649.44 | – | – | 0.348

CC1CCCCC1 [methylcyclohexane]
Details | mass density, [1] [kg/m3] | refractive index, [2] | surface tension liquid-gas, [1] [mN/m] | viscosity, [1] [mPa·s]
293.15 K | 769.35 | 1.4232 | 23.87 | 0.735
298.15 K | 765.05 | 1.4199 | 23.02 | 0.692
303.15 K | 760.71 | 1.419 | 22.55 | 0.651
308.15 K | 756.37 | 1.4168 | 22.12 | 0.615
313.15 K | 752 | 1.415 | – | 0.58
318.15 K | 747.58 | 1.4102 | – | 0.549
323.15 K | 743.17 | 1.4078 | – | 0.522
333.15 K | 734.29 | – | – | 0.476
343.15 K | 725.31 | – | – | 0.439
